Assays:
P. acnes NCTC 737 [1] = experiment: Minimum inhibitory concentration (MIC) assay; assay type: cell-based, Propionibacterium acnes
Excerpt: (§1) (a) Minimum Inhibitory Concentration (MIC) Assay
(§2) The culture media were as described above.
(§3) The assays included both negative (culture medium with no micro-organisms) and positive (culture medium plus diluting solvent plus micro-organism) controls.

P. acnes NCTC 737 [2] = experiment: Disc diffusion assay (DDA), also supplemented;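 further: paper disc carrying compound placed on inoculated Wilkins-Chalgren Anaerobe agar pH 6.0, with lipid or NaCl supplement where listed, anaerobic 37 °C for 72 h, inhibition zone diameter read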
Description: (§6) The propionibacteria were cultured and maintained on Wilkins-Chalgren Anaerobe Medium (agar and broth) at pH 6.0; all cultures were incubated anaerobically at 37° C. for 72 hours.
(d) Disc Diffusion Assay (DDA)
A sterile paper disc was impregnated with a sample of the test compound in a suitable solvent and 30 minutes allowed for the solvents to evaporate (where possible). The disc was then placed on an agar plate onto which the test micro-organism had been inoculated. The plate was then incubated under the conditions described above, following which it was examined visually for signs of bacterial growth. […] The diameter of this zone of “inhibition” was measured using a ProtoCOL™ automated zone sizer (Synbiosis, Cambridge, UK).
(f) Supplemented Disc Diffusion Assays
(§7) For assays using Propionibacterium spp. strains the supplements used in the examples below were lipid (either Tween™ 80 or triolein, both at 1% v/v) and sodium chloride (100 mM).

S. aureus ATCC 29213 [3] = experiment: Disc diffusion assay (DDA), also supplemented
S. aureus ATCC 29213 [4] = experiment: Synergy disc diffusion assay (SDDA), also supplemented;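 further: disc diffusion on Mueller-Hinton agar at pH 7.2, aerobic incubation at 37 °C lasting 19-20 h, two compounds assessed jointly for combined antimicrobial effect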
P. acnes NCTC 737 [5] = experiment: Minimum bactericidal concentration (MBC) assay; assay type: cell-based, Propionibacterium acnes
Description: (§4) (b) Minimum Bactericidal Concentration (MBC) Assay
(§5) Following incubation they were examined visually for bacterial growth.

S. aureus ATCC 29213 [6] = experiment: Minimum inhibitory concentration (MIC) assay; assay type: cell-based, Staphylococcus aureus
Excerpt: as §1, §2, §3

P. acnes NCTC 737 [7] = experiment: Synergy disc diffusion assay (SDDA), also supplemented
Description: as §6
(e) Synergy Disc Diffusion Assay (SDDA)
This is a variation on the DDA method, in which two compounds are tested together for their combined antimicrobial activity.
Two test compounds A and B were placed on a single paper disc and the above described DDA procedure repeated.
(f) Supplemented Disc Diffusion Assays
as §7

S. aureus ATCC 29213 [8] = experiment: Minimum bactericidal concentration (MBC) assay; assay type: cell-based, Staphylococcus aureus
Description: as §4, §5

Row | Structure (SMILES) | MIC (P. acnes NCTC 737 [1]) [µg/mL] | MIC/MBC ratio (P. acnes NCTC 737 [1]) | DDA (P. acnes NCTC 737 [2]) [mm] | DDA + lipid (P. acnes NCTC 737 [2]) [mm] | DDA + salt (P. acnes NCTC 737 [2]) [mm] | DDA + salt & lipid (P. acnes NCTC 737 [2]) [mm] | DDA (S. aureus ATCC 29213 [3]) [mm] | DDA + lipid (S. aureus ATCC 29213 [3]) [mm] | DDA + salt (S. aureus ATCC 29213 [3]) [mm] | DDA + salt & serum (S. aureus ATCC 29213 [3]) [mm] | SDDA area increase (S. aureus ATCC 29213 [4]) [%] | SDDA increase (S. aureus ATCC 29213 [4]) [mm] | SDDA with TBHQ (S. aureus ATCC 29213 [4]) [mm] | SS SDDA area increase (S. aureus ATCC 29213 [4]) [%] | SS SDDA increase (S. aureus ATCC 29213 [4]) [mm] | SS SDDA with TBHQ (S. aureus ATCC 29213 [4]) [mm] | MBC (P. acnes NCTC 737 [5]) [µg/mL] | MIC (S. aureus ATCC 29213 [6]) [µg/mL] | SDDA area increase (P. acnes NCTC 737 [7]) [%] | SDDA increase (P. acnes NCTC 737 [7]) [mm] | other results
1 | On1ccccc1=S.On1ccccc1=S.[Cu] [Copper (II) pyrithione] | 0.24 | 0.5 | 56.42 | 22.38 | 43.21 | 33.37 | 20.51 | 15.25 | 21.48 | 17.86 | 150.13 | 19.29 | 52.45 | 66.12 | 9.29 | 41.43 | 0.49 | 0.49 | 18.55 | 5.01 | MIC/MBC ratio (S. aureus ATCC 29213 [6]): 1; SDDA with TBHQ (P. acnes NCTC 737 [7]): 61.43 mm; SL SDDA area increase (P. acnes NCTC 737 [7]): 7.64%; SL SDDA increase (P. acnes NCTC 737 [7]): 1.25 mm; SL SDDA with TBHQ (P. acnes NCTC 737 [7]): 34.63 mm; MBC (S. aureus ATCC 29213 [8]): 0.49 µg/mL
2 | O.O=C([O-])C(O)C(O)C(=O)[O-].[Cu+2] (stereo not drawn) [Copper (II) tartrate hydrate] | 15.6 | 0.25 | 49.64 | 38.35 | 48.25 | 47.56 | 0 | 0 | 0 | 0 | −88.71 | −26.84 | 13.58 | −94.19 | −33.15 | 10.53 | 62.5 | >250 | 20.27 | 4.8 | SDDA with TBHQ (P. acnes NCTC 737 [7]): 54.44 mm; SL SDDA area increase (P. acnes NCTC 737 [7]): 24.11%; SL SDDA increase (P. acnes NCTC 737 [7]): 5.42 mm; SL SDDA with TBHQ (P. acnes NCTC 737 [7]): 52.98 mm; MBC (S. aureus ATCC 29213 [8]): >250 µg/mL
